The values below come from US11331290B2, “Niclosamide for the treatment of cancer metastasis” (Max-Delbrück-Centrum für Molekulare Medizin in der …, priority 2011, dated 2022).

The subject of one assay is HCT116 cells. Nature of the assay: Anchorage-dependent cell proliferation (MTT), discontinued treatment. Format: cell-based, human. As for the experimental part:
For cell proliferation determination of HCT116, SW620, LS174T, SW480 and DLD-1 cells 2×10^3 cells were seeded in 96-well-plates (for each day one plate) and were given 24 hours to attach to the bottom of the well. Cells were from then on treated daily with 1 μM niclosamide or the respective amount of DMSO. For determination of viable cells 3-(4,5-dimethyl-2-thiazol)-2,5-diphenyl-2H-tetrazolium bromide (MTT; Sigma) was added to a final concentration of 0.5 mg per mL and incubated for 3 hours at 37° C. and 5% CO2 in a humidified incubator. […] Crystallized MTT was resolved by 10% SDS in 10 mM HCl and the absorption was measured at 560 nm. […] The average MTT metabolisation was determined of two independent experiments each performed in triplicate.
(A) S100A4 expression in vitro after discontinued niclosamide treatment. HCT116 cells were treated daily with 1 μM niclosamide for three consecutive days, medium was removed on day 4, and S100A4 expression was analyzed 24, 48, and 72 hours after niclosamide removal. S100A4 expression was analyzed by qRT-PCR and immunoblot. […] Cell migration rates of HCT116 cells treated as in (A) were determined by Boyden chamber assay. Differences in control vs. treated cells were analyzed by Student's t test. […] Cell proliferation was determined by MTT assay. […] (E) Luminescence signal from liver metastases and spleen tumors. […]

In another assay the test system is HCT116-CMVp-LUC cells. Nature of the assay: HCT116-CMVp-LUC intrasplenic xenograft: liver metastasis, tumor growth, overall survival. The class given is in vivo, mice. Particulars: for median survival: control 24 days. As for the experimental part: All experiments were performed in accordance with the UKCCCR guidelines and approved by the responsible local authorities (State Office of Health and Social Affairs, Berlin, Germany). HCT116-CMVp-LUC cells (3×10^6 cells per mouse, resuspended in 50 μL PBS) were intrasplenically transplanted into 6-week-old female nonobese diabetic-severe combined immunodeficiency (NOD-SCID) mice. Mice were randomly assigned to 3 groups and reatment of mice started 24 hours after cell transplantation. Mice of the control group (n=9) were treated with daily doses of solvent. Mice of the second group (n=9) were daily treated intraperitoneally with 20 mg per kg niclosamide. Mice of the third group (n=9) were treated intraperitoneally with two doses of 15 mg per kg niclosamide per day. The experimental endpoint was reached when mice appeared moribund and/or the spleen tumor was palpable. This was the case with the majority of control mice on day 24. For long-term in vivo experiments mice randomly assigned to 3 groups. Mice of the control group (n=6) were treated intraperitoneally with daily doses of solvent. Mice of the second group (n=6) were daily treated intraperitoneally with 20 mg per kg niclosamide. Mice of the third group (n=6) were daily treated intraperitoneally for 24 days with 20 mg per kg niclosamide and for the residual days with solvent. Mice were killed by cervical dislocation when tumor reached the maximum in accordance with the local authorities.
Spleen (as the transplantation site) and liver (as a metastasis target organ) were removed. The amount of S100A4 mRNA in the tumor was determined by Trizol RNA isolation of tumor cryosections and quantitative real-time RT-PCR. The level of metastasis was evaluated by scoring. For each liver, a score was calculated as the sum of the volumes of the individual metastases. For each metastasis the formula [width2]×length was applied.
For in vivo luminescence imaging mice were anesthetized with 35 mg per kg Hypnomidate (Jassen-Cilag, Neuss, Germany) and received intraperitoneally 150 mg per kg D-luciferin (Biosynth, Staad, Switzerland) dissolved in sterile PBS. Imaging was performed with the NightOWL LB 981 system (Berthold Technologies, Bad Wildbad, Germany) with exposure times of 1 second and 20 seconds. ImageJ version 2.3 was used for color coding of signal intensity (presenting a 256 grayscale) and overlay pictures.
All calculations and statistical analyses were performed with GraphPad Prism version 4.01. Student t test was used for comparison of only two groups. One-way analysis of variance (ANOVA) was applied for comparing the control group with several treated groups followed by Bonferroni post hoc multiple comparisons. In cell cytotoxicity assay the half-maximal effective concentration to which cell viability was reduced to 50% (EC50) values were calculated by sigmoidal dose-response curve fit of x=log(x) transformed data. Kaplan-Meier analysis was used to plot overall survival and differences in curves were analyzed by Logrank test. All tests were two-sided, and P values less than 0.05 were considered to be statistically significant. If not stated otherwise, means are reported with 95% confidence interval.
(A) In vivo luminescence imaging of metastasis under niclosamide treatment. HCT116-CMVp-LUC cells stably expressing firefly luciferase (LUC) were intrasplenically transplanted into mice (per group n=4) followed by daily intraperitoneal treatment with 20 mg per kg niclosamide. For luminescence imaging, mice were anesthetized at the indicated days and received intraperitoneally D-luciferin. Exposure time for lateral and ventral imaging was 20 seconds per picture. In situ imaging and imaging of isolated organs was performed for 1 second per picture exposure time. Signal intensity of grayscale images (256 scale) were color coded (from low to high signal intensity: blue, green, yellow, red, white) and overlayed with bright field picture. […]

Turning to `O=C(Nc1ccc([N+](=O)[O-])cc1Cl)c1cc(Cl)ccc1O` [niclosamide, 2′,5-dichloro-4′-nitrosalicylanilide], the anchorage-dependent proliferation result with HCT116 cells (1 μM daily, vs solvent-treated control) is listed as “inhibited”. In addition, in the assay on HCT116 cells (niclosamide removed on day 5, following five days), the “anchorage-dependent proliferation after removal of niclosamide” value is “did not reverse the inhibition of cell proliferation”. Also, the “liver metastasis score, mean % of control” value with HCT116-CMVp-LUC cells (20 mg per kg daily intraperitoneally, 24 days) stood at 37.9%; in the assay on HCT116-CMVp-LUC cells (2×15 mg per kg per day intraperitoneally, 24 days), 36.1%; with HCT116-CMVp-LUC cells (continuous treatment (20 mg per kg i.p. daily)), 10.9%; in the assay with HCT116-CMVp-LUC cells (discontinuous treatment (20 mg per kg i.p. for 24 days, then solvent)), 34.9%. Besides, the “liver metastasis signal, in vivo luminescence imaging” value with HCT116-CMVp-LUC cells (20 mg per kg daily intraperitoneally, day 24) is on record as “No or only tiny liver metastasis signals”. The “size of liver metastases” value with HCT116-CMVp-LUC cells (20 mg per kg i.p., continuously and discontinuously, vs solvent-treated animals) is listed as “clearly reduced”. For the same compound, in the assay with HCT116-CMVp-LUC cells (20 mg per kg i.p., either continuously or discontinuously, vs solvent-treated mice), the spleen tumor growth entry is recorded as “clearly delayed”. In addition, the “liver metastasis, mean difference control vs treatment” value in the assay with HCT116-CMVp-LUC cells (continuous treatment) stood at 89.1%; in the assay with HCT116-CMVp-LUC cells (discontinuous treatment), 65.1%. The “median survival ratio control vs treatment” value in the assay on HCT116-CMVp-LUC cells (continuous treatment) amounted to 0.56; in the assay with HCT116-CMVp-LUC cells (discontinuous treatment), 0.52. In addition, the median survival was 43 days in the assay on HCT116-CMVp-LUC cells (continuous treatment: 20 mg per kg i.p. daily) and 46.5 days in the assay on HCT116-CMVp-LUC cells (discontinuous treatment: 20 mg per kg i.p. daily for 24 days, then solvent).
